Measured values reported in article PMC11766569, “Novel Insights into the Nobilamide Family from a Deep-Sea Bacillus: Chemical Diversity, Biosynthesis and Antimicrobial Activity Towards Multidrug-Resistant Bacteria” (Marine Drugs, 2025).
In brackets after ≈: the same amount, converted by molar mass. Like-named read-outs stand apart in the source and are kept apart here. Marks after values point to notes of the source that are not given here. Blank lines part the entries; values can stand above or below the compound they belong to. Bridge positions count the residues as written; N and C are the ends. Square brackets hold non-standard residues; d marks the D form. Peptide text beside a SMILES is read from it. d(aThr) = C[C@@H](O)[C@@H](N)C(=O)O; Dhb = C/C=C(\N)C(=O)O

Legend:
S. xilosus MB5209 = experiment: microbe, parasite or virus in culture; format: cell-based, S. xylosus
Method: (§1) To evaluate the antimicrobial potential of all samples, the MICs for E. coli ATCC® 10536™, S. aureus ATCC® 6538™, S. aureus ATCC® 6538p™, methicillin-resistant S. aureus (MRSA), macrolide-resistant S. aureus ([…]), quinolone-resistant S. aureus (QRSA), vancomycin-resistant S. aureus (VRSA), S. epidermidis RP206 [7], S. xylosus MB 5209 [77] were determined by the liquid inhibition assay. Briefly, the bacterial strains were inoculated in 3 mL of liquid Mueller–Hinton broth (MHB) (HiMedia, Einhausen, Germany) in sterile bacteriological tubes and incubated in agitation at 37 °C until they reached the turbidity of 0.5 McFarland. Different from the remaining pathogens, L. monocytogenes MB 677 [79] was diluted in the Trypticasein soy broth (TSB) medium with an additional 0.6% yeast extract. Finally, serial dilutions of the inoculum were performed to obtain a final bacterial concentration of about 5 × 10^5 CFU/mL. Then, 4 µL of each sample was added into a 96-well microtiter plate containing 200 µL of MH medium. After being serially diluted using MH medium, 100 µL of bacterial suspension was inoculated into the broth (~5 × 10^4 CFU/well) and incubated statically for 18 h at 37 °C. DMSO was used as a control to determine the effect of solvent on cell growth. Vancomycin, erythromycin, and ampicillin were used as positive controls.

[1] = tested on: S. aureus methicillin-resistant; experiment: microbe, parasite or virus in culture; format: cell-based, Staphylococcus aureus
Method: as §1

[2] = tested on: S. aureus quinolone-resistant; experiment: microbe, parasite or virus in culture; format: cell-based, Staphylococcus aureus
Method: as §1

[3] = tested on: S. aureus macrolide-resistant; experiment: microbe, parasite or virus in culture; format: cell-based, Staphylococcus aureus
Method: as §1

S. aureus 6538p = experiment: microbe, parasite or virus in culture; format: cell-based, Staphylococcus aureus
Method: as §1

S. aureus 6538 = experiment: microbe, parasite or virus in culture; format: cell-based, Staphylococcus aureus
Method: as §1

[4] = tested on: S. aureus vancomycin-resistant; experiment: Liquid inhibition assay (MIC); format: cell-based, Staphylococcus aureus; details: vancomycin-resistant S. aureus (VRSA), 96-well, MH medium, ~5 × 10^4 CFU/well, 18 h at 37 °C, absorbance at 600 nm
Method: as §1

L. monocytogenes 677 = experiment: microbe, parasite or virus in culture; format: cell-based, Listeria monocytogenes
Method: as §1

E. coli ATCC 10536 = experiment: Liquid inhibition assay (MIC); format: cell-based, Escherichia coli; details: Gram-negative E. coli ATCC 10536
Method: as §1

S. epidermidis RP206 = format: cell-based; details: RP206, 18 h
Method: as §1

Structure (SMILES): CN[C@H](CC(C)C)C(=O)N[C@H]1C(=O)N[C@@H](CC(N)=O)C(=O)N[C@H]2C(=O)N[C@H]3C(=O)N[C@H](C(=O)N[C@H](C(=O)O)c4cc(O)cc(O)c4-c4cc3ccc4O)[C@H](O)c3ccc(c(Cl)c3)Oc3cc2cc(c3O[C@@H]2O[C@H](CO)[C@@H](O)[C@H](O)[C@H]2O[C@H]2C[C@](C)(N)[C@H](O)[C@H](C)O2)Oc2ccc(cc2Cl)[C@H]1O [Vancomycin]
MIC (S. xilosus MB5209; S. xilosus MB5209, 96-well, MH medium, ~5 × 10^4 CFU/well, 18 h at 37 °C, absorbance at 600 nm): 0.5 ^a μg/mL
MIC (S. xilosus MB5209; Staphylococcus xylosus, MB5209, 18 h): 0.5 µg/mL (≈ 0.345 µM)
MIC ([1]; Staphylococcus aureus, 18 h): 0.5 µg/mL (≈ 0.345 µM)
MIC ([1]; methicillin-resistant S. aureus, 96-well, MH medium, ~5 × 10^4 CFU/well, 18 h at 37 °C, absorbance at 600 nm): 0.5 ^a μg/mL
MIC ([2]; Staphylococcus aureus, 18 h): 0.5 µg/mL (≈ 0.345 µM)
MIC ([2]; quinolone-resistant S. aureus, 96-well, MH medium, ~5 × 10^4 CFU/well, 18 h at 37 °C, absorbance at 600 nm): 0.5 ^a μg/mL
MIC ([3]; Staphylococcus aureus, 18 h): 0.5 µg/mL (≈ 0.345 µM)
MIC ([3]; macrolide-resistant S. aureus, 96-well, MH medium, ~5 × 10^4 CFU/well, 18 h at 37 °C, absorbance at 600 nm): 0.5 ^a μg/mL
MIC (S. aureus 6538p; S. aureus 6538p, 96-well, MH medium, ~5 × 10^4 CFU/well, 18 h at 37 °C, absorbance at 600 nm, lowest concentration that completely inhibited growth): 1 ^a μg/mL
MIC (S. aureus 6538p; Staphylococcus aureus, 6538P, 18 h): 1 µg/mL (≈ 0.69 µM)
MIC (S. aureus 6538; S. aureus 6538, 96-well, MH medium, ~5 × 10^4 CFU/well, 18 h at 37 °C, absorbance at 600 nm): 0.5 ^a μg/mL
MIC (S. aureus 6538; Staphylococcus aureus, 6538, 18 h): 0.5 µg/mL (≈ 0.345 µM)

MIC ([4]; Staphylococcus aureus, read-out: MIC): 1 µg/mL (≈ 1.36 µM)
MIC [4]: 1 ^b μg/mL
Structure (SMILES): CC[C@H]1OC(=O)[C@H](C)[C@@H](O[C@H]2C[C@@](C)(OC)[C@@H](O)[C@H](C)O2)[C@H](C)[C@@H](O[C@@H]2O[C@H](C)C[C@H](N(C)C)[C@H]2O)[C@](C)(O)C[C@@H](C)C(=O)[C@H](C)[C@@H](O)[C@]1(C)O [erythromycin]

MIC (L. monocytogenes 677; L. monocytogenes 677, diluted in TSB with 0.6% yeast extract, 18 h at 37 °C, absorbance at 600 nm): 1 ^c μg/mL
MIC (L. monocytogenes 677; Listeria monocytogenes, 677, 18 h): 1 µg/mL (≈ 2.86 µM)
Structure (SMILES): CC1(C)S[C@@H]2[C@H](NC(=O)[C@H](N)c3ccccc3)C(=O)N2[C@H]1C(=O)O [ampicillin]

MIC (S. xilosus MB5209; 18 h): 7.8 µg/mL (≈ 9.7 µM)
MIC ([1]; methicillin-resistant, 18 h): 3.9 µg/mL (≈ 4.85 µM)
MIC ([2]; quinolone-resistant, 18 h): 0.9 µg/mL (≈ 1.12 µM)
MIC ([3]; macrolide-resistant, 18 h): 1.9 µg/mL (≈ 2.36 µM)
MIC (S. aureus 6538p; 6538p, 18 h): 0.24 µg/mL (≈ 0.299 µM)
MIC (S. aureus 6538; 6538, 18 h): 0.24 µg/mL (≈ 0.299 µM)
MIC (S. epidermidis RP206): 7.8 µg/mL (≈ 9.7 µM)
MIC (L. monocytogenes 677; 677, 18 h): 0.24 µg/mL (≈ 0.299 µM)
Structure (SMILES): C/C=C1\NC(=O)[C@H](C)NC(=O)[C@H](C(C)C)NC(=O)[C@H](NC(=O)[C@H](Cc2ccccc2)NC(=O)[C@@H](CC(C)C)NC(=O)[C@@H](Cc2ccccc2)NC(C)=O)[C@@H](C)OC1=O [TL-119] (Ac-[dF][dL]F[d(aThr)]VA[Dhb]; ester 4-C)
antibacterial activity (in words) (E. coli ATCC 10536): lack of antibacterial activity
